Patent US20030129629A1, “Methods and compositions for the identification, assessment, prevention, and therapy of human cancers” (Millennium Pharmaceuticals, Inc., priority 2000, published 2003)

Test system: 60 cancer cell lines (NCI 60 cancer cell line series)
Assay: NCI-DTP in vitro cancer screen, sulforhodamine B (SRB) growth inhibition, 48 hour exposure
Type: cell-based, human
Description: Cancer Cell Line Preparation. Sixty cancer cell lines were obtained from the National Cancer Institute Developmental Therapeutics Program (NCI-DTP). Procedures for growing cells and testing compounds have been described previously (Scudiero et al., Cancer Res. 1988, 48:4827-4833; Stinson et al., Anticancer Res.; Myers et al., Electrophoresis 1997, 18:647-653). Cells are plated on day 0 at a density individualized for each cell line so that they will generally be sub-confluent at the end of the assay period. On day 1, a compound is added in the format for a duplicate-well, 5-dose, ten-fold interval dose response study.
No-drug, no-cell and no-growth controls are included. On day 3 the cells are processed for staining with sulforhodamine B (SRB), which reflects the amount of cell mass present at the end of a 48 hour exposure to the test agent. From dose response curves based on the SRB data, various parameters can be determined. […] More precisely, the quantity used in the calculation to be described is the potency measure −log{GI50}.
Activity database (A). […] This subset of compounds was selected from the larger 23,000 compound database available from the DTP. The compounds were selected on the basis of their known mechanism of action and chemical structure. The average potency −log{GI50} was extracted from the comma-delimited text files available through the Web at http://www.nci.nih.gov/intra/lmp/jnwbio.html. Subsequently, these −log{GI50} values were inspected manually and classified as indicating either Low, Medium or High sensitivity to each compound.

O=C1c2c(O)ccc(O)c2C(=O)c2c(NCCNCCO)ccc(NCCNCCO)c21 [Mitoxantrone]
2: classification of cell line as Low(1), Medium(2), High(3) sensitivity to compound (Breast BT-549 CL5013) | classification of cell line as Low(1), Medium(2), High(3) sensitivity to compound (Breast HS-578T CL5006) | classification of cell line as Low(1), Medium(2), High(3) sensitivity to compound (Breast T-47D CL5014) | classification of cell line as Low(1), Medium(2), High(3) sensitivity to compound (CNS SF-268 CL12014) | classification of cell line as Low(1), Medium(2), High(3) sensitivity to compound (CNS SF-295 CL12015) | classification of cell line as Low(1), Medium(2), High(3) sensitivity to compound (Colon COLO-250 CL4010) | classification of cell line as Low(1), Medium(2), High(3) sensitivity to compound (Colon HCT-116 CL4003) | classification of cell line as Low(1), Medium(2), High(3) sensitivity to compound (Colon SW-620 CL4009) | classification of cell line as Low(1), Medium(2), High(3) sensitivity to compound (Leukemia K562(I) CL7005) | classification of cell line as Low(1), Medium(2), High(3) sensitivity to compound (Leukemia RPMI-8226(I) CL7010) | classification of cell line as Low(1), Medium(2), High(3) sensitivity to compound (Melanoma LOX IMVI CL10001) | classification of cell line as Low(1), Medium(2), High(3) sensitivity to compound (Melanoma M14 CL10014) | classification of cell line as Low(1), Medium(2), High(3) sensitivity to compound (Melanoma MALME-3M CL10002) | classification of cell line as Low(1), Medium(2), High(3) sensitivity to compound (Melanoma SK-MEL-5 CL10007) | classification of cell line as Low(1), Medium(2), High(3) sensitivity to compound (Melanoma UACC-62 CL10020) | sensitivity classification Low(1)/Medium(2)/High(3) (NSCLC NCI-H23(I) CL1001) | sensitivity classification Low(1)/Medium(2)/High(3) (NSCLC NCI-H522 CL1003) | sensitivity classification Low(1)/Medium(2)/High(3) (Ovarian IGROV1 CL6010) | sensitivity classification Low(1)/Medium(2)/High(3) (Ovarian OVCAR-8 CL6005) | sensitivity classification Low(1)/Medium(2)/High(3) (Ovarian SK-OV-3 CL6011) | sensitivity classification Low(1)/Medium(2)/High(3) (Prostate DU-145 CL11003) | sensitivity classification Low(1)/Medium(2)/High(3) (Prostate PC-3(I) CL11001) | sensitivity classification Low(1)/Medium(2)/High(3) (Renal 786-0 CL9018) | sensitivity classification Low(1)/Medium(2)/High(3) (Renal A498 CL9013) | sensitivity classification Low(1)/Medium(2)/High(3) (Renal RXF-393 CL9016)
3: classification of cell line as Low(1), Medium(2), High(3) sensitivity to compound (Breast MCF7(I) CL5001) | classification of cell line as Low(1), Medium(2), High(3) sensitivity to compound (CNS SF-539 CL12016) | classification of cell line as Low(1), Medium(2), High(3) sensitivity to compound (CNS SNB-19 CL12002) | classification of cell line as Low(1), Medium(2), High(3) sensitivity to compound (CNS SNB-75(I) CL12005) | classification of cell line as Low(1), Medium(2), High(3) sensitivity to compound (CNS U251(I) CL12009) | classification of cell line as Low(1), Medium(2), High(3) sensitivity to compound (Leukemia CCRF-CEM(I) CL7003) | classification of cell line as Low(1), Medium(2), High(3) sensitivity to compound (Leukemia HL-60(I) CL7008) | classification of cell line as Low(1), Medium(2), High(3) sensitivity to compound (Leukemia MOLT-4 CL7006) | classification of cell line as Low(1), Medium(2), High(3) sensitivity to compound (Leukemia SR CL7019) | classification of cell line as Low(1), Medium(2), High(3) sensitivity to compound (NSCLC A549/ATCC CL1004) | classification of cell line as Low(1), Medium(2), High(3) sensitivity to compound (NSCLC HOP-62 CL1026) | classification of cell line as Low(1), Medium(2), High(3) sensitivity to compound (NSCLC HOP-92 CL1029) | classification of cell line as Low(1), Medium(2), High(3) sensitivity to compound (NSCLC NCI-H226 CL1013) | sensitivity classification Low(1)/Medium(2)/High(3) (NSCLC NCI-H460 CL1021) | sensitivity classification Low(1)/Medium(2)/High(3) (Renal ACHN CL9023) | sensitivity classification Low(1)/Medium(2)/High(3) (Renal CAKI-1 CL9015) | sensitivity classification Low(1)/Medium(2)/High(3) (Renal SN12C CL9008)
1: classification of cell line as Low(1), Medium(2), High(3) sensitivity to compound (Breast MCF7/ADRr CL5002) | classification of cell line as Low(1), Medium(2), High(3) sensitivity to compound (Breast MDA-MB-231 CL5005) | classification of cell line as Low(1), Medium(2), High(3) sensitivity to compound (Breast MDA-MB-435 CL5011) | classification of cell line as Low(1), Medium(2), High(3) sensitivity to compound (Breast MDA-N CL5012) | classification of cell line as Low(1), Medium(2), High(3) sensitivity to compound (Colon HCC-2998 CL4002) | classification of cell line as Low(1), Medium(2), High(3) sensitivity to compound (Colon HCT-15 CL4015) | classification of cell line as Low(1), Medium(2), High(3) sensitivity to compound (Colon HT29(I) CL4001) | classification of cell line as Low(1), Medium(2), High(3) sensitivity to compound (Colon KM12 CL4017) | classification of cell line as Low(1), Medium(2), High(3) sensitivity to compound (Melanoma SK-MEL-2 CL10005) | classification of cell line as Low(1), Medium(2), High(3) sensitivity to compound (Melanoma SK-MEL-28 CL10008) | classification of cell line as Low(1), Medium(2), High(3) sensitivity to compound (Melanoma UACC-257 CL10021) | classification of cell line as Low(1), Medium(2), High(3) sensitivity to compound (NSCLC EKVX CL1008) | sensitivity classification Low(1)/Medium(2)/High(3) (NSCLC NCI-H332M CL1017) | sensitivity classification Low(1)/Medium(2)/High(3) (Ovarian OVCAR-3 CL6001) | sensitivity classification Low(1)/Medium(2)/High(3) (Ovarian OVCAR-4 CL6002) | sensitivity classification Low(1)/Medium(2)/High(3) (Ovarian OVCAR-5 CL6003) | sensitivity classification Low(1)/Medium(2)/High(3) (Renal TK10 CL9024) | sensitivity classification Low(1)/Medium(2)/High(3) (Renal UO-31 CL9004)
